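A five-concentration, 48-hour dose response in 96-well plates underlies each endpoint, interpolated linearly between surrounding concentrations. GI50 = concentration required for 50% inhibition of growth. TGI is the concentration that stops growth completely.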
How the values were obtained:
Experiment in all cases: NCI anticancer screen, dose series, 48 h; in the data active = GI50 below about 0.43 µM; inactive = the rest
UO-31 renal = tested on: UO-31 renal
UACC-62 melanoma = tested on: UACC-62 melanoma
TK-10 renal = tested on: TK-10 renal
SK-MEL-28 melanoma = tested on: SK-MEL-28 melanoma
M14 melanoma = tested on: M14 melanoma
SK-MEL-5 melanoma = tested on: SK-MEL-5 melanoma
DMS 114 small cell lung = tested on: DMS 114 small cell lung
UACC-257 melanoma = tested on: UACC-257 melanoma
HT29 colon = tested on: HT29 colon
SW-620 colon = tested on: SW-620 colon
MALME-3M melanoma = tested on: MALME-3M melanoma
EKVX NSCLC = tested on: EKVX NSCLC
SNB-19 CNS = tested on: SNB-19 CNS
IGROV1 ovarian = tested on: IGROV1 ovarian
M19-MEL melanoma = tested on: M19-MEL melanoma
A549 NSCLC = tested on: A549 NSCLC
HOP-62 NSCLC = tested on: HOP-62 NSCLC
SF-539 CNS = tested on: SF-539 CNS
SN12C renal = tested on: SN12C renal
OVCAR-3 ovarian = tested on: OVCAR-3 ovarian
KM12 colon = tested on: KM12 colon
RXF 393 renal = tested on: RXF 393 renal
SR leukemia = tested on: SR leukemia
NCI-H23 lung = tested on: NCI-H23 lung
SF-268 CNS = tested on: SF-268 CNS
OVCAR-4 ovarian = tested on: OVCAR-4 ovarian
KM20L2 colon = tested on: KM20L2 colon
OVCAR-8 ovarian = tested on: OVCAR-8 ovarian
SK-MEL-2 melanoma = tested on: SK-MEL-2 melanoma
CAKI-1 renal = tested on: CAKI-1 renal
RPMI-8226 leukemia = tested on: RPMI-8226 leukemia
HCT-116 colon = tested on: HCT-116 colon
OVCAR-5 ovarian = tested on: OVCAR-5 ovarian
SK-OV-3 ovarian = tested on: SK-OV-3 ovarian
COLO 205 colon = tested on: COLO 205 colon
HCC-2998 colon = tested on: HCC-2998 colon
CCRF-CEM leukemia = tested on: CCRF-CEM leukemia
RXF-631 renal = tested on: RXF-631 renal
SF-295 CNS = tested on: SF-295 CNS
NCI-H522 lung = tested on: NCI-H522 lung
A498 renal = tested on: A498 renal
DLD-1 colon = tested on: DLD-1 colon
MOLT-4 leukemia = tested on: MOLT-4 leukemia
NCI-H460 lung = tested on: NCI-H460 lung
ACHN renal = tested on: ACHN renal
HL-60(TB) leukemia = tested on: HL-60(TB) leukemia
786-0 renal = tested on: 786-0 renal
LXFL 529 NSCLC = tested on: LXFL 529 NSCLC
XF 498 CNS = tested on: XF 498 CNS
SNB-75 CNS = tested on: SNB-75 CNS
K-562 leukemia = tested on: K-562 leukemia
DMS 273 small cell lung = tested on: DMS 273 small cell lung
SNB-78 CNS = tested on: SNB-78 CNS
HOP-18 NSCLC = tested on: HOP-18 NSCLC
U251 CNS = tested on: U251 CNS
LOX IMVI melanoma = tested on: LOX IMVI melanoma
HCT-15 colon = tested on: HCT-15 colon
HOP-92 NSCLC = tested on: HOP-92 NSCLC
NCI-H226 lung = tested on: NCI-H226 lung

COC(=O)c1ccccc1NC(=O)C(=O)CC(=O)CC(c1ccccc1)c1c(O)c2ccccc2oc1=O (stereo not given)
> 100 µM: TGI (UO-31 renal) | TGI (UACC-62 melanoma) | TGI (TK-10 renal) | TGI (SK-MEL-28 melanoma) | TGI (M14 melanoma) | TGI (SK-MEL-5 melanoma) | TGI (DMS 114 small cell lung) | TGI (UACC-257 melanoma) | TGI (HT29 colon) | TGI (SW-620 colon) | TGI (MALME-3M melanoma) | TGI (EKVX NSCLC) | TGI (SNB-19 CNS) | TGI (IGROV1 ovarian) | TGI (M19-MEL melanoma) | TGI (A549 NSCLC) | TGI (HOP-62 NSCLC) | TGI (SF-539 CNS) | TGI (SN12C renal) | TGI (OVCAR-3 ovarian) | TGI (KM12 colon) | TGI (RXF 393 renal) | TGI (SR leukemia) | TGI (NCI-H23 lung) | TGI (SF-268 CNS) | TGI (OVCAR-4 ovarian) | TGI (KM20L2 colon) | TGI (OVCAR-8 ovarian) | TGI (SK-MEL-2 melanoma) | TGI (CAKI-1 renal) | TGI (RPMI-8226 leukemia) | TGI (HCT-116 colon) | TGI (OVCAR-5 ovarian) | TGI (SK-OV-3 ovarian) | TGI (COLO 205 colon) | TGI (HCC-2998 colon) | TGI (CCRF-CEM leukemia) | TGI (RXF-631 renal) | TGI (SF-295 CNS) | TGI (NCI-H522 lung) | TGI (A498 renal) | TGI (DLD-1 colon) | TGI (MOLT-4 leukemia) | TGI (NCI-H460 lung) | TGI (ACHN renal) | TGI (HL-60(TB) leukemia) | TGI (786-0 renal)

COc1cc(Cl)c2c3c(c(C(=O)c4ccccc4)oc13)CCC2
> 100 µM: TGI (UACC-62 melanoma) | TGI (TK-10 renal) | TGI (SK-MEL-28 melanoma) | TGI (M14 melanoma) | TGI (SK-MEL-5 melanoma) | TGI (LXFL 529 NSCLC) | TGI (XF 498 CNS) | TGI (DMS 114 small cell lung) | TGI (UACC-257 melanoma) | TGI (HT29 colon) | TGI (SW-620 colon) | TGI (EKVX NSCLC) | TGI (SNB-19 CNS) | TGI (IGROV1 ovarian) | TGI (M19-MEL melanoma) | TGI (A549 NSCLC) | TGI (HOP-62 NSCLC) | TGI (SF-539 CNS) | TGI (SN12C renal) | TGI (OVCAR-3 ovarian) | TGI (RXF 393 renal) | TGI (SNB-75 CNS) | TGI (NCI-H23 lung) | TGI (OVCAR-4 ovarian) | TGI (KM20L2 colon) | TGI (K-562 leukemia) | TGI (OVCAR-8 ovarian) | TGI (CAKI-1 renal) | TGI (RPMI-8226 leukemia) | TGI (HCT-116 colon) | TGI (DMS 273 small cell lung) | TGI (SK-OV-3 ovarian) | TGI (COLO 205 colon) | TGI (HCC-2998 colon) | TGI (SNB-78 CNS) | TGI (HOP-18 NSCLC) | TGI (CCRF-CEM leukemia) | TGI (SF-295 CNS) | TGI (A498 renal) | TGI (U251 CNS) | TGI (DLD-1 colon) | TGI (MOLT-4 leukemia) | TGI (NCI-H460 lung) | TGI (ACHN renal) | TGI (LOX IMVI melanoma) | TGI (HL-60(TB) leukemia) | TGI (HCT-15 colon) | TGI (786-0 renal)

O=[N+]([O-])[O-].O=[N+]([O-])[O-].[Au].[Au].c1ccc([P-]c2ccccc2)cc1.c1ccc([P-]c2ccccc2)cc1
65.3 µM: TGI (UACC-62 melanoma)
46.3 µM: TGI (NCI-H522 lung)
53.6 µM: TGI (TK-10 renal)
32.7 µM: TGI (LXFL 529 NSCLC)
47 µM: TGI (MALME-3M melanoma)
63 µM: TGI (EKVX NSCLC)
52.7 µM: TGI (CAKI-1 renal)
62.7 µM: TGI (UACC-257 melanoma)
58.1 µM: TGI (SK-MEL-2 melanoma)
33.9 µM: TGI (ACHN renal)
47.5 µM: TGI (UO-31 renal)
51.5 µM: TGI (HOP-92 NSCLC)
75.6 µM: TGI (SK-MEL-28 melanoma)
58.7 µM: TGI (786-0 renal)
55.4 µM: TGI (OVCAR-3 ovarian)
52.9 µM: TGI (M14 melanoma)
inactive: GI50 (UO-31 renal) 25.9 µM | GI50 (UACC-62 melanoma) 30 µM | GI50 (TK-10 renal) 23.3 µM | GI50 (SK-MEL-28 melanoma) 29.3 µM | GI50 (M14 melanoma) 22.6 µM | GI50 (SK-MEL-5 melanoma) 34.1 µM | GI50 (LXFL 529 NSCLC) 14.2 µM | GI50 (DMS 114 small cell lung) 37.5 µM | GI50 (UACC-257 melanoma) 26.3 µM | GI50 (HT29 colon) 71.3 µM | GI50 (SW-620 colon) 38.7 µM | GI50 (MALME-3M melanoma) 19.8 µM | GI50 (EKVX NSCLC) 33.4 µM | GI50 (SNB-19 CNS) > 100 µM | GI50 (IGROV1 ovarian) 46.2 µM | GI50 (A549 NSCLC) 84 µM | GI50 (HOP-62 NSCLC) > 100 µM | GI50 (SF-539 CNS) 43.9 µM | GI50 (OVCAR-3 ovarian) 26.4 µM | GI50 (KM12 colon) 46.3 µM | GI50 (SNB-75 CNS) 51.4 µM | GI50 (NCI-H23 lung) 36 µM | GI50 (SF-268 CNS) 65.1 µM | GI50 (HOP-92 NSCLC) 26.6 µM | GI50 (KM20L2 colon) 36.4 µM | GI50 (K-562 leukemia) 23.6 µM | GI50 (OVCAR-8 ovarian) 35.3 µM | GI50 (SK-MEL-2 melanoma) 31.1 µM | GI50 (CAKI-1 renal) 26.9 µM | GI50 (RPMI-8226 leukemia) 14.3 µM | GI50 (HCT-116 colon) 44.2 µM | GI50 (OVCAR-5 ovarian) > 100 µM | GI50 (DMS 273 small cell lung) 39.2 µM | GI50 (SK-OV-3 ovarian) > 100 µM | GI50 (COLO 205 colon) 28 µM | GI50 (HCC-2998 colon) 71.8 µM | GI50 (SNB-78 CNS) 61 µM | GI50 (HOP-18 NSCLC) 18.5 µM | GI50 (CCRF-CEM leukemia) 18.8 µM | GI50 (SF-295 CNS) > 100 µM | GI50 (NCI-H522 lung) 3.64 µM | GI50 (A498 renal) > 100 µM | GI50 (U251 CNS) 36.6 µM | GI50 (DLD-1 colon) 47 µM | GI50 (NCI-H460 lung) 20.4 µM | GI50 (ACHN renal) 17 µM | GI50 (LOX IMVI melanoma) 35.3 µM | GI50 (HL-60(TB) leukemia) 12 µM | GI50 (HCT-15 colon) 27 µM | GI50 (786-0 renal) 19.2 µM
> 100 µM: TGI (DMS 114 small cell lung) | TGI (HT29 colon) | TGI (SW-620 colon) | TGI (SNB-19 CNS) | TGI (IGROV1 ovarian) | TGI (A549 NSCLC) | TGI (HOP-62 NSCLC) | TGI (KM12 colon) | TGI (SNB-75 CNS) | TGI (NCI-H23 lung) | TGI (SF-268 CNS) | TGI (KM20L2 colon) | TGI (K-562 leukemia) | TGI (OVCAR-8 ovarian) | TGI (RPMI-8226 leukemia) | TGI (HCT-116 colon) | TGI (OVCAR-5 ovarian) | TGI (DMS 273 small cell lung) | TGI (SK-OV-3 ovarian) | TGI (COLO 205 colon) | TGI (HCC-2998 colon) | TGI (SNB-78 CNS) | TGI (CCRF-CEM leukemia) | TGI (SF-295 CNS) | TGI (A498 renal) | TGI (U251 CNS) | TGI (DLD-1 colon) | TGI (NCI-H460 lung) | TGI (LOX IMVI melanoma) | TGI (HL-60(TB) leukemia) | TGI (HCT-15 colon)
88.8 µM: TGI (SK-MEL-5 melanoma)
37.6 µM: TGI (HOP-18 NSCLC)
77.7 µM: TGI (SF-539 CNS)

Cc1c2n(c3ccccc13)CC1CON(C)C21 (stereo not given)
> 100 µM: TGI (UO-31 renal) | TGI (UACC-62 melanoma) | TGI (SK-MEL-28 melanoma) | TGI (M14 melanoma) | TGI (LXFL 529 NSCLC) | TGI (DMS 114 small cell lung) | TGI (MALME-3M melanoma) | TGI (IGROV1 ovarian) | TGI (M19-MEL melanoma) | TGI (HOP-62 NSCLC) | TGI (SF-539 CNS) | TGI (SNB-75 CNS) | TGI (SR leukemia) | TGI (NCI-H23 lung) | TGI (SF-268 CNS) | TGI (OVCAR-4 ovarian) | TGI (HOP-92 NSCLC) | TGI (K-562 leukemia) | TGI (SK-MEL-2 melanoma) | TGI (CAKI-1 renal) | TGI (RPMI-8226 leukemia) | TGI (HCT-116 colon) | TGI (DMS 273 small cell lung) | TGI (SK-OV-3 ovarian) | TGI (COLO 205 colon) | TGI (HCC-2998 colon) | TGI (SNB-78 CNS) | TGI (CCRF-CEM leukemia) | TGI (RXF-631 renal) | TGI (NCI-H522 lung) | TGI (DLD-1 colon) | TGI (MOLT-4 leukemia) | TGI (NCI-H226 lung) | TGI (HL-60(TB) leukemia) | TGI (786-0 renal)

Reference: PubChem BioAssay (NCI)
